Data: patent US20130079394A1, “Indirect modeling of new repellent molecules active against insects, acarids, and other arthropods” (CNRS (CENTRE NATIONAL RECHERCHE SCIENTIFIQUE), priority 2011, published 2013)

Test system: flies
Experiment: Repellency index of coumarin derivatives evaluated in vivo (index from −1 to 1, function of a number of flies)
Set-up: key to Repellency Index: index from −1 to 1, 1 = highly repellent
Details: experimental index ranging from −1 to 1 (1 = highly repellent); measurement error about ±0.1; data set of USSN 61,501,485
Method: Up until now, all existing models for repellency have been based on protection time value, which is different for each. Moreover, the environmental parameters in which the animals are studied are frequently different. As a consequence, data produced using different models cannot be combined/compared. […] The numerical value obtained was not a protection time but rather an index ranging from −1 to 1 (with 1 being highly repellent). This number was calculated for each experiment and is function of a number of flies.
To minimize the deleterious effects of these potentially confounding factors, “repellency classes” were established. Based on the repellency index values, the dataset was divided into 2, 3, 4 or 5 repellency class subsets, in order to reduce the difficulty of modeling the property of slightly repellent molecules. For example, in the four classes' models, the thresholds between the classes are defined as follow: […]

| SMILES | Repellency Index |
| --- | --- |
| CC(C)COc1cc(=O)oc2ccccc12 [EV07070] | 0.94 |
| CC(C)COc1ccc2oc(=O)ccc2c1 [EV07072] | 0.98 |
| CCCCCCC(C)Oc1cc(=O)oc2ccccc12 (stereo not drawn) [EV07078] | 0.91 |
| CCCCC(CC)C(=O)Oc1ccc2ccc(=O)oc2c1 (stereo not drawn) [EV 04016] | 0.11 |
| C/C=C(\C)C(=O)Oc1ccc2ccc(=O)oc2c1 [EV 04024] | 0.26 |
| CCC(C)C(=O)Oc1ccc2ccc(=O)oc2c1 (stereo not drawn) [EV 04030] | −0.10 |
| C=CCOc1ccc2ccc(=O)oc2c1 [EV 04032] | 0.19 |
| CCCCOc1ccc2ccc(=O)oc2c1 [EV 04036] | −0.06 |
| CCC(C)OC(=O)N1CCCCC1CCOc1ccc2ccc(=O)oc2c1 (stereo not drawn) [EV 04042] | 0.43 |
| CC(C)Oc1ccc2ccc(=O)oc2c1 [EV 04054] | 0.66 |
| CCC(C)Oc1ccc2ccc(=O)oc2c1 (stereo not drawn) [EV 04058] | 0.76 |
| CCC(C)CC(=O)Oc1ccc2ccc(=O)oc2c1 (stereo not drawn) [EV 04062] | 0.04 |
| CCC(C)Oc1ccc2ccc(=O)oc2c1 (stereo not drawn) [EV 04070] | 0.83 |
| CC1CCCCC1Oc1ccc2ccc(=O)oc2c1 (stereo not drawn) [EV 04084] | −0.01 |
| C=C(C)C1CC=C(COc2ccc3ccc(=O)oc3c2)CC1 (stereo not drawn) [EV 04090] | 0.40 |
| CCC(C)COc1ccc2ccc(=O)oc2c1 (stereo not drawn) [EV 04094] | 0.73 |
| CCC(CC)Oc1ccc2ccc(=O)oc2c1 [EV 04114] | 0.86 |
| CC(=O)OC(C)C(=O)Oc1ccc2ccc(=O)oc2c1 (stereo not drawn) [EV 04122] | −0.36 |
| CC(C)COC1CCC2CCC(=O)OC2C1 (stereo not drawn) [EV 04188] | 0.65 |

| SMILES | Repellency Index |
| --- | --- |
| COC(=O)/C=C/c1ccccc1O [EV 05056] | 0.40 |
| CCN(CC)C(=O)c1ccc2ccc(=O)oc2c1 [EV 05084] | 0.30 |
| O=C(COc1ccc2ccc(=O)oc2c1)N1CCCCC1 [EV 05088] | 0.07 |
| CCN(CC)C(=O)COc1ccc2ccc(=O)oc2c1 [EV 05096] | 0.80 |
| O=C(c1ccc2ccc(=O)oc2c1)N1CCCCC1 [EV 05118] | −0.10 |
| CCCCN(CCCC)C(=O)COc1ccc2ccc(=O)oc2c1 [EV 05120] | 0.71 |
| CC1CCCCN1C(=O)COc1ccc2ccc(=O)oc2c1 (stereo not drawn) [EV 05134] | 0.78 |
| CCCCN(CCCC)C(=O)c1ccc2ccc(=O)oc2c1 [EV 05138] | 0.72 |
| CC1CCCCN1C(=O)c1ccc2ccc(=O)oc2c1 (stereo not drawn) [EV 05144] | 0.60 |
| CCC(CC)OC(=O)c1ccc2ccc(=O)oc2c1 [EV 05162] | 0.62 |
| CCC(CC)OC(=O)COc1ccc2ccc(=O)oc2c1 [EV 05174] | 0.69 |
| CCC(C)OC(=O)c1ccc2ccc(=O)oc2c1 (stereo not drawn) [EV 05178] | 0.71 |
| CCC(CC)Oc1ccc2oc(=O)ccc2c1 [EV 06018] | 0.43 |
| CCCCCOc1ccc2ccc(=O)oc2c1 [EV 06026] | 0.88 |
| CC(C)C(C)Oc1ccc2ccc(=O)oc2c1 (stereo not drawn) [EV 06028] | 0.88 |
| CC(C)CCOc1ccc2ccc(=O)oc2c1 [EV 06036] | 0.73 |
| CCCC(C)Oc1ccc2ccc(=O)oc2c1 (stereo not drawn) [EV 06044] | 0.92 |
| CCC(C)OC(=O)COc1ccc2ccc(=O)oc2c1 (stereo not drawn) [EV 06046] | 0.08 |
| CCC(C)COC(=O)COc1ccc2ccc(=O)oc2c1 (stereo not drawn) [EV 06058] | 0.52 |

| SMILES | Repellency Index |
| --- | --- |
| CCC(CC)Cc1cc(=O)oc2ccccc12 [EV 06062] | 0.97 |
| CCC(C)Oc1ccc2oc(=O)ccc2c1 (stereo not drawn) [EV 06068] | 0.88 |
| CCC(C)Oc1cc(=O)oc2ccccc12 (stereo not drawn) [EV 06088] | 0.82 |
| CCCCCCCCN(CCCCCCCC)C(=O)COc1ccc2ccc(=O)oc2c1 [EV 06092] | 0.35 |
| CCCCCCCCN(CCCCCCCC)C(=O)c1ccc2ccc(=O)oc2c1 [EV 06096] | 0.91 |
| CCCC(C)Oc1cc(=O)oc2ccccc12 (stereo not drawn) [EV 06098] | 0.95 |
| CCCCCCOc1ccc2ccc(=O)oc2c1 [EV 06110] | 0.78 |
| CC(C)C(C)Oc1cc(=O)oc2ccccc12 (stereo not drawn) [EV 06128] | 0.34 |
| CCCCCOc1cc(=O)oc2ccccc12 [EV 06136] | 0.77 |
| CC(C)CCOc1cc(=O)oc2ccccc12 [EV 06140] | 0.84 |
| CCCCCCCCOc1ccc2ccc(=O)oc2c1 [EV 06144] | 0.83 |
| CCCCCCC(C)Oc1ccc2ccc(=O)oc2c1 (stereo not drawn) [EV 06148] | 0.92 |
| CCCC(C)Oc1ccc2oc(=O)ccc2c1 (stereo not drawn) [EV 06154] | 0.93 |
| CC(C)(C)COc1ccc2ccc(=O)oc2c1 [EV 06162] | −0.55 |
| CCC(C)NC(=O)c1ccc2ccc(=O)oc2c1 (stereo not drawn) [EV 06166] | 0.25 |
| CCC(C)OC(=O)COc1ccc2ccc(=O)oc2c1 (stereo not drawn) [EV 06178] | 0.25 |
| CCC(C)Oc1ccc2ccc(=O)oc2c1 (stereo not drawn) [EV 06188] | 0.87 |
| CCCCCCCCN(CCCCCCCC)C(=O)COc1cc(=O)oc2ccccc12 [EV 07068] | 0.98 |

Same assay, conditions: values used as class thresholds

| SMILES | repellency index (RI) of reference repellents |
| --- | --- |
| CCN(CC)C(=O)c1cccc(C)c1 [DEET, N,N-Diethyl-meta-toluamide] | 0.83 |
| CCC(C)OC(=O)N1CCCCC1CCO (stereo not drawn) [Picaridine, reference compound] | 0.70 |

Test system: mosquitoes
Experiment: not given
Details: absence of body odor attractants such as 1-octen-3-ol, lactic acid, or carbon dioxide; cited from earlier work

| SMILES | repellent activity in a behavioral test |
| --- | --- |
| CCN(CC)C(=O)c1cccc(C)c1 [DEET, N,N-Diethyl-meta-toluamide] | strong repellent activity |

Test system: not given
Experiment: not given
Details: reported by US EPA (RED); cited from earlier work

| SMILES | deaths among DEET-associated seizure cases [deaths] |
| --- | --- |
| CCN(CC)C(=O)c1cccc(C)c1 [DEET, N,N-Diethyl-meta-toluamide] | 4 |
